The values below come from patent US20240148836A1, “COMPOSITION FOR TREATING CANCER EXPRESSING SPARC” (SEOUL NATIONAL UNIVERSITY R&DB FOUNDATION, priority 2021, published 2024).

“Also recorded” adds a separate entry of the source.

The IC50 is the point on the concentration scale where inhibition reaches its midpoint. Read a high IC50 as weaker potency.

Data set [1] relates to U87MG-shSPARC cells. As to the kind of experiment: Cellular cytotoxicity, Cell Counting Kit-8 (CCK-8) assay. It counts as cell-based, Human. To be noted: 72 h, CCK-8, n=5, Table 1. As for the experimental part:
(§1) Human glioma cells (U87MG) were obtained from American Type Culture Collection (ATCC; Manassas, VA, USA). Low SPARC-expressing U87MG cells, U87MG-shSPARC, were established from a previous study.
(§2) (1) U87MG and U87MG-shSPARC cells were added to 96-well plates (4000 cells/well). […] Cell viability was analyzed using a Cell Counting Kit-8 (CCK-8, Dojindo Molecular Technologies, Tokyo, Japan) assay according to the manufacturer's protocols.
A general note: Formazan colour is commonly taken as a measure of viable cells.

Data set [2] relates to U87MG-shSPARC tumor xenograft. In words: Xenograft tumor model, anti-tumor effect in vivo. On the set-up: species or system BALB/c nude mice. As for the experimental part: All animal studies were performed under approval from the Seoul National University Institutional Animal Care and Use Committee (IACUC No. 18-0231, 1 Nov. 2018). BALB/c nude mice (5-week-old, male) were purchased from Orient Bio Inc. (Seongnam, Korea). U87MG or U87MG-shSPARC cells (2×10^6 cells/site) were injected subcutaneously into the right lower flanks.
(§3) The tumor size and body weight of each mouse were recorded every other day. Tumor volume was calculated using the equation V=0.5×L×W^2, where L represents tumor length and W represents tumor width.

The subject of data set [3] is U87MG tumors. As to the kind of experiment: Tumor CDDP accumulation using ICP-MS. Type of data set: in vivo, mice. To be noted: 72 h after last of 7 IV doses, FIG. 6B. On the procedure:
For tumor CDDP distribution, U87MG or U87MG-shSPARC cells (2×10^6 cells/site) were injected subcutaneously into the right lower flanks. […] At 72 h after the last IV administration (15 days after first administration), mice were euthanized, and the tumor was acquired.
All samples (organs, blood, and tumors) were lyophilized and we analyzed the amount of CDDP using the ICP-MS (NexION 350; Perkin-Elmer, Waltham, MA, USA) installed at the National Center for Inter-university Research Facilities (NCIRF) at Seoul National University.

Data set [4] can be described thus: TUNEL assay of kidney sections. To be noted: FIGS. 8A and 8B. It counts as in vivo, mice. From the text: The tumor and kidney were fixed with 4% paraformaldehyde and embedded in paraffin, which was further cut into […] sections. To evaluate cellular apoptosis in kidney, a kidney section was stained using a TUNEL assay kit-HRP-DAB (ab206386; abcam, Cambridge, UK) according to the manufacturer's protocols.

Data set [5] is described as follows: Histopathology examination, H&E staining. Type of data set: in vivo. To be noted: drug-treated mice, FIG. 7B. The text has this: The kidney, liver, and spleen of the drug-treated mice were acquired and fixed with 4% paraformaldehyde. Tissues were embedded in paraffin and stained with hematoxylin and eosin (H&E). H&E staining images were acquired using an optical microscope (Olympus BX43, Tokyo, Japan).

Data set [6] has as its system U87MG cells. As to the kind of experiment: Cellular cytotoxicity, Cell Counting Kit-8 (CCK-8) assay. It counts as cell-based, Human. To be noted: 72 h. On the procedure: as §1, §2
(2) To execute cellular cytotoxicity experiments of HSA bound with CDDPs in different numbers, U87MG cells were added to a 96-well plate (4000 cells/well) and incubated overnight. […] Cell viability was analyzed using a Cell Counting Kit-8 (CCK-8, Dojindo Molecular Technologies, Tokyo, Japan) assay according to the manufacturer's protocols.

The nature of data set [7]: Biosafety: body weight and blood biochemical analysis. It counts as in vivo, mice. As for the experimental part: After centrifugation at 4° C. for 20 min, the plasma was collected for blood biochemical analysis. The concentrations of AST, ALT, BUN, and creatinine were analyzed at DKKorea (Seoul, Korea).
For data set [8], the system named is U87MG tumor xenograft. In words: Xenograft tumor model, anti-tumor effect in vivo. On the set-up: species or system BALB/c nude mice. To be noted: for weight of mice: xenograft tumor models (U87MG and U87MG-shSPARC), FIG. 5C, 5D, 3 mg/kg IV 7 times. On the procedure:
BALB/c nude mice (5-week-old, male) were purchased from Orient Bio Inc. (Seongnam, Korea). U87MG or U87MG-shSPARC cells (2×10^6 cells/site) were injected subcutaneously into the right lower flanks.
as §3

`N.N.[Cl][Pt][Cl]` [CDDP, cis-diamine dichloroplatinum (II)]: the IC50 in data set [1] worked out at 2650 ± 130 nM; in data set [6] (CCK-8, n=5, Table 1) it was 2540 ± 134 nM; in data set [6] (CCK-8, n=6, Table 2 (CDDP number-dependent HSA)), 4720 ± 110 nM. Moreover, the survival rate result in data set [2] (U87MG-shSPARC tumor model vs PBS group, FIG. 5F) is recorded as “prolonged survival”; in data set [8] (U87MG tumor model vs PBS group, FIG. 5E), “prolonged survival time than the PBS group”. Besides, the tumor growth entry was “significantly reduced tumor growth than the PBS group” in data set [2] (U87MG-shSPARC tumor model, 26 days after first drug treatment, 3 mg/kg CDDP equivalent IV every other day 7 times) and “significantly reduced tumor growth than the PBS group” in data set [8] (U87MG tumor model, 12 days after first drug treatment, 3 mg/kg CDDP equivalent IV every other day 7 times, p<0.001). Further, the Median survival in data set [2] (U87MG-shSPARC tumor xenograft model, 3 mg/kg CDDP equivalent IV 7 times) was determined as 42 days; in data set [8] (U87MG tumor xenograft model, 3 mg/kg CDDP equivalent IV 7 times), 22 days. In data set [3], the “accumulation of CDDP, U87MG vs U87MG-shSPARC tumors” value was “no difference in CDDP accumulation between U87MG and U87MG-shSPARC”. Besides, in data set [4], the “TUNEL positive cells in kidney” value was “TUNEL positive cells were only identified in the kidney of CDDP-treated mice”. Also, the “H&E staining of kidney tissue” value in data set [5] is “tubular degeneration; also recorded: extensive epithelial vacuolization; also recorded: degeneration of renal tubules; also recorded: vacuolation of epithelial cells”. The body weight entry in data set [7] (72 h after final treatment (every other day, seven times), FIG. 7A) is “significant body weight loss compared to the PBS and HSA-CDDP groups”. For the same compound, the “blood urea nitrogen (BUN)” value in data set [7] (kidney function, 72 h after final treatment) is “increased”. The weight of mice entry is “significantly decreased” in data set [8] and “significant weight loss compared to the group treated with PBS” in data set [8] (listed as CCDP).
